Paper PMC10435442, “Developing multitarget coumarin based anti-breast cancer agents: synthesis and molecular modeling study” (Scientific Reports, 2023)
≈ marks a conversion by molar mass, not a printed value. Where “and” joins values, the source holds several entries; their conditions need not be identical. Equal entries are not always repeated. Where two headings read alike, the source gives them in different places. Marks after values point to notes of the source that are not given here.

Tests used:
in vitro = details: human, MCF-10A cells (nonmalignant breast)
MCF-7 [1] = test: MTT cytotoxicity assay, MCF-7; details: for IC50: Homo sapiens
MDA-MB-231 [2] = test: MTT cytotoxicity assay, MDA-MB-231; details: for IC50: Homo sapiens; for % viability: MDA
MCF-10A = test: MTT cytotoxicity assay, nonmalignant MCF-10A; details: read-out: MCF-10A IC50; MTT, nonmalignant MCF-10A;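 note: MTT assay with absorbance read at 570 nm after 48 h exposure of cells to serial compound concentrations at 37 °C, testing selectivity against nonmalignant versus cancer cells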
EGFR = EGFR (Homo sapiens, UniProt P00533); test: In vitro EGFR enzyme inhibition assay (ELISA); details: for EGFR %inh: lab report 01-11-2021
aromatase (ARO) = target: T1, aromatase (ARO) (Homo sapiens, UniProt P11511); test: In vitro aromatase (ARO) enzyme inhibition assay (ELISA)
T1 sequence (P11511 1-503): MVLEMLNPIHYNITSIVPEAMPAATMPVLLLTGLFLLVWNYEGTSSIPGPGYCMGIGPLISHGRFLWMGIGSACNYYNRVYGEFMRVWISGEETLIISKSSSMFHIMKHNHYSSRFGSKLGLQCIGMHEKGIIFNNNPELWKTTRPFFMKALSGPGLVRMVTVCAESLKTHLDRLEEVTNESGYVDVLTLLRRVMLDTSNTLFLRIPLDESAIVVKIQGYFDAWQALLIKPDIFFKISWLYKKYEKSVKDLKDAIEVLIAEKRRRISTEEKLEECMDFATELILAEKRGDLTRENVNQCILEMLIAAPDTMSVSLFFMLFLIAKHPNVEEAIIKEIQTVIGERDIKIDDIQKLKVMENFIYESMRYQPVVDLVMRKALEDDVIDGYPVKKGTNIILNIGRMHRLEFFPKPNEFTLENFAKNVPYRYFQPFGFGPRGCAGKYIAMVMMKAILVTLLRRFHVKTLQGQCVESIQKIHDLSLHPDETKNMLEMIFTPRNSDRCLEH

ARO = test system: ARO; design: method as in PMID 21341743, PMID 28512028, PMID 15358790, PMID 24607878, PMID 30360952; details: reported coumarin derivatives, Fig. 1b; read-out: ARO inhibitior IC50; cited from earlier work
MDA-MB-231 [3] = test: DNA flow cytometric cell cycle analysis, MDA-MB-231; assay type: cell-based, human
MDA-MB-231 [4] = test: Annexin V-FITC/PI dual staining apoptosis assay, MDA-MB-231; assay type: cell-based, human; details: MDA-MB-231
Bax = Bax level (ELISA) in treated cells; assay type: cell-based, human
Bcl-2 = Bcl-2 level (ELISA) in treated cells; assay type: cell-based, human
Caspase-9 = Caspase-9 level (ELISA) in treated cells; assay type: cell-based, human
MCF-7 [5] = test: DNA flow cytometric cell cycle analysis, MCF-7; assay type: cell-based, human
MCF-7 [6] = test: Annexin V-FITC/PI dual staining apoptosis assay, MCF-7; assay type: cell-based, human
[7] = MCF7, read-out: cytotoxicity_IC50 mcf7
[8] = MDA-MB-231, read-out: MDA-MBA-231 IC50
[9] = MDA-MB-231, read-out: cytotoxicity_IC50 MDA
[10] = EGFR IC50, lab report 01-11-2021, 10 compounds
[11] = MDA-MB-231, compared to control
[12] = MCF-7, compared to untreated control

EGFR, sequence (P00533 25-1210): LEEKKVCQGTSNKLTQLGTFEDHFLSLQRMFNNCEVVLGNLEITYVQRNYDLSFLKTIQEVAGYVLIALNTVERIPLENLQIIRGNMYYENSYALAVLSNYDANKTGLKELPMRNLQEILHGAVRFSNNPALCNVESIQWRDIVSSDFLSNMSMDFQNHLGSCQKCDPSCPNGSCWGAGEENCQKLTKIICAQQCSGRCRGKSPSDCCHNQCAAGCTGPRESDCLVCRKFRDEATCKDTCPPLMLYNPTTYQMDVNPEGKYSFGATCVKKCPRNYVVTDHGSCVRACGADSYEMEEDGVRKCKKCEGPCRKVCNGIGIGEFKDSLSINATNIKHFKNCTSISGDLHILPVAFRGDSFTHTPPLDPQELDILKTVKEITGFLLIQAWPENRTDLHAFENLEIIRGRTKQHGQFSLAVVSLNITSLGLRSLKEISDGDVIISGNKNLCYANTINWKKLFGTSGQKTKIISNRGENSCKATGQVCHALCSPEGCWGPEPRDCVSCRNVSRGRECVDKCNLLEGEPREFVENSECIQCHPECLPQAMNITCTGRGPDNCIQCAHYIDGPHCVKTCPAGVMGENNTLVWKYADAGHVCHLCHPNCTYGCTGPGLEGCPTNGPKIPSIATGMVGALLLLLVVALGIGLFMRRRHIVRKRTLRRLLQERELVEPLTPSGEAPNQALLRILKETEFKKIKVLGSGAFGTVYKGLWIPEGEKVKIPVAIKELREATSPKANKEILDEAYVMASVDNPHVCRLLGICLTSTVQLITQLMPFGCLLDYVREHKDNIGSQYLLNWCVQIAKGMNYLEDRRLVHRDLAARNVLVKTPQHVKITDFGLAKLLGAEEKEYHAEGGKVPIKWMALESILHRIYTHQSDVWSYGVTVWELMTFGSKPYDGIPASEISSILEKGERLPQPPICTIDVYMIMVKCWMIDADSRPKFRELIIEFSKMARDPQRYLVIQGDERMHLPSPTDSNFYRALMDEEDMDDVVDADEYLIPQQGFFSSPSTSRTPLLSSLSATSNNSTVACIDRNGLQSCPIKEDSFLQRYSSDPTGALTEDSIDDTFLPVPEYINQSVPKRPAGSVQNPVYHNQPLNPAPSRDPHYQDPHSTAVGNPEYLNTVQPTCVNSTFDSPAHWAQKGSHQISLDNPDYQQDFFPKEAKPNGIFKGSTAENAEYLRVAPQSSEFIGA

Compound: O=C(OCc1cc(=O)oc2cc(O)ccc12)c1ccccc1 [Compound 2, (7-Hydroxy-2-oxo-2H-chromen-4-yl)methyl benzoate]
- IC50 at 48 h (in vitro): 55 ± 2.68 µg/mL (≈ 186 µM)
- viability at 48 h, 0.4 ug (in vitro): 88%
- viability at 48 h, 1.6 ug (in vitro): 77.2%
- viability at 48 h, 6.25 ug (in vitro): 66.5%
- viability at 48 h, 25 ug (in vitro): 57.6%
- viability at 48 h, 100 ug (in vitro): 44.4%
- IC50 (MCF-7 [1]; MCF7, read-out: MCF-7 IC50): 6 ± 0.11 µM
- IC50 (MCF-7 [1]; [7]): 1.78 ± 0.11 µg/mL
- % viability (MCF-7 [1]; MCF7, 0.4ug): 58.765%
- % viability (MCF-7 [1]; MCF7, 1.6ug): 52.469%
- % viability (MCF-7 [1]; MCF7, 6.3ug): 41.79%
- % viability (MCF-7 [1]; MCF7, 25ug): 32.963%
- % viability (MCF-7 [1]; MCF7, 100ug): 21.0494%
- IC50 (MDA-MB-231 [2]; [8]): 51.9 ± 0.84 µM
- IC50 (MDA-MB-231 [2]; [9]): 15.4 ± 0.84 µg/mL
- % viability (MDA-MB-231 [2]; 0.4ug (log conc. -0.41)): 75.87% and 75.875%
- % viability (MDA-MB-231 [2]; 1.6ug (log conc. 0.19)): 65.56% and 65.561%
- % viability (MDA-MB-231 [2]; 6.25ug (log conc. 0.8)): 57.358% and 57.36%
- % viability (MDA-MB-231 [2]; 25ug (log conc. 1.4)): 47.527% and 47.53%
- % viability (MDA-MB-231 [2]; 100ug (log conc. 2)): 36.5501% and 36.55%
- IC50 (MCF-10A): 186 ± 2.68 µM
- IC50 (EGFR; [10]): 0.864 µM
- IC50 (EGFR; EGFR inhibition IC50): 0.864 ± 0.054 µM
- EGFR %inh (EGFR; conc 0.01 (unit not given)): 20%
- EGFR %inh (EGFR; conc 0.1 (unit not given)): 41%
- EGFR %inh (EGFR; conc 1 (unit not given)): 63%
- EGFR %inh (EGFR; conc 10 (unit not given)): 84%
- Percentage above Reference IC50 (potency relative to erlotinib) (EGFR; reference Erlotinib): 9.722%
- IC50 (aromatase (ARO); ARO inhibition IC50): 0.216 ± 0.01 µM
- IC50 (aromatase (ARO); Aromatase IC50, lab report 14-12-2020): 0.216 µM
- inhibition at 10 pg/mL (aromatase (ARO); read-out: %inh): 37%
- inhibition at 0.0001 µg/mL (aromatase (ARO); read-out: %inh): 54%
- inhibition at 0.001 µg/mL (aromatase (ARO); read-out: %inh): 68%
- inhibition at 0.01 µg/mL (aromatase (ARO); read-out: %inh): 89%

Compound: O=c1cc(Cn2ccnc2)c2ccc(Oc3ccc(F)c(F)c3)cc2o1 [II]
- IC50 (ARO): 0.047 µM

Compound: CC(=O)Oc1ccc2c(COC(=O)c3ccc(Cl)cc3)cc(=O)oc2c1 [Compound 14, (7-Acetoxy-2-oxo-2H-chromen-4-yl)methyl 4-chlorobenzoate]
- %G0-G1 (MDA-MB-231 [3]; MDA-MB-231, IC50 concentration): 54.69^ikBD %
- %G2/M (MDA-MB-231 [3]; MDA-MB-231, IC50 concentration): 7.09^dACDE %
- %Pre-G1 (MDA-MB-231 [3]; MDA-MB-231, IC50 concentration): 41.02^iklmC %
- %S (MDA-MB-231 [3]; MDA-MB-231, IC50 concentration): 38.22^ABE %
- cell cycle arrest at S phase (MDA-MB-231 [3]; [11]): 1.38 folds
- increase of apoptotic cells in pre-G1 phase (MDA-MB-231 [3]; [11]): 19.9 folds
- % Apoptosis Early (MDA-MB-231 [4]): 23.61^ilmn %
- % Apoptosis Late (MDA-MB-231 [4]): 13.22^hik %
- % Apoptosis Total (MDA-MB-231 [4]): 41.02% and 41.02^gh %
- % Necrosis (MDA-MB-231 [4]): 4.19%
- Bax Conc (Bax; MDA-MB-231 cells): 0.292±0.0106^ghi ng/ml
- Bax FLD (fold versus control) (Bax; MDA-MB-231 cells): 4.9 folds
- Bcl-2 Conc (Bcl-2; MDA-MB-231 cells): 2.984±0.12^gh ng/ml
- Bcl-2 FLD (fold versus control) (Bcl-2; MDA-MB-231 cells): 0.329 folds
- Caspase-9 Conc. (Caspase-9; MDA-MB-231 cells): 18.97±0.62^ghi ng/ml
- Caspase-9 FLD (fold versus control) (Caspase-9; MDA-MB-231 cells): 4.37 folds
- IC50 at 48 h (in vitro): 97.9 ± 4.77 µg/mL (≈ 263 µM)
- viability at 48 h, 0.4 ug (in vitro): 85.6%
- viability at 48 h, 1.6 ug (in vitro): 77.6%
- viability at 48 h, 6.25 ug (in vitro): 67.2%
- viability at 48 h, 25 ug (in vitro): 59.5%
- viability at 48 h, 100 ug (in vitro): 49.6%
- IC50 (MCF-7 [1]; MCF7, read-out: MCF-7 IC50): 285 ± 6.41 µM
- IC50 (MCF-7 [1]; [7]): 106 ± 6.41 µg/mL
- % viability (MCF-7 [1]; MCF7, 0.4ug): 88.083%
- % viability (MCF-7 [1]; MCF7, 1.6ug): 77.238%
- % viability (MCF-7 [1]; MCF7, 6.3ug): 66.961%
- % viability (MCF-7 [1]; MCF7, 25ug): 60.34%
- % viability (MCF-7 [1]; MCF7, 100ug): 50.7566%
- selectivity against MDA-MB-231 than MCF-7 (MDA-MB-231 [2]): 150 times
- IC50 (MDA-MB-231 [2]; [8]): 1.9 ± 0.03 µM
- IC50 (MDA-MB-231 [2]; [9]): 0.64 ± 0.03 µg/mL
- % viability (MDA-MB-231 [2]; 0.4ug (log conc. -0.41)): 53.505%
- % viability (MDA-MB-231 [2]; 1.6ug (log conc. 0.19)): 43.354%
- % viability (MDA-MB-231 [2]; 6.25ug (log conc. 0.8)): 34.773%
- % viability (MDA-MB-231 [2]; 25ug (log conc. 1.4)): 26.136%
- % viability (MDA-MB-231 [2]; 100ug (log conc. 2)): 15.4795%
- IC50 (MCF-10A): 263 ± 4.77 µM
- IC50 (EGFR; EGFR IC50, lab report 01-09-2021, 04 compounds, reference Erlotinib): 2.44 µM
- IC50 (EGFR; EGFR inhibition IC50): 2.44 ± 0.051 µM
- inhibition at 10 pg/mL (EGFR; read-out: EGFR %inh): 18%
- inhibition at 0.0001 µg/mL (EGFR; read-out: EGFR %inh): 24%
- inhibition at 0.001 µg/mL (EGFR; read-out: EGFR %inh): 44%
- inhibition at 0.01 µg/mL (EGFR; read-out: EGFR %inh): 78%
- Percentage above Reference IC50 (potency relative to erlotinib) (EGFR; reference Erlotinib): 5.942%

Compound: COc1ccc2c(Cc3ccccc3)c(-c3ccc(Cl)cc3)c(=O)oc2c1 [IV]
- IC50 (ARO): 0.08 µM

Compound: O=C(COc1ccc2c(COC(=O)c3ccccc3)cc(=O)oc2c1)c1ccc(Cl)cc1 [Compound 8, {7-[2-(4-Chlorophenyl)-2-oxoethoxy]-2-oxo-2H-chromen-4-yl}methyl benzoate]
- Comment (cell cycle phase of growth arrest) (MCF-7 [5]; MCF7): cell growth arrest@ G1/S
- DNA content %G0-G1 (MCF-7 [5]; MCF7): 55.83%
- DNA content %Pre-G1 (MCF-7 [5]; MCF7): 31.19%
- DNA content %S (MCF-7 [5]; MCF7): 39.85%
- %G0-G1 (MCF-7 [5]; MCF-7, IC50 concentration): 55.83^c ^ACD %
- %Pre-G1 (MCF-7 [5]; MCF-7, IC50 concentration): 31.19^ae ^AB %
- %S (MCF-7 [5]; MCF-7, IC50 concentration): 39.85 ^CE %
- arrest in S phase (MCF-7 [5]; [12]): 1.33 folds
- increase of apoptotic cells in pre-G1 phase (MCF-7 [5]; [12]): 18.67 folds
- Apoptosis Late (MCF-7 [6]; MCF7): 19.66
- Apoptosis Total (MCF-7 [6]; MCF7): 31.19
- % Apoptosis Early (MCF-7 [6]; MCF-7): 4.94^abcA %
- % Apoptosis Late (MCF-7 [6]; MCF-7): 19.66^acA %
- % Apoptosis Total (MCF-7 [6]; MCF-7): 31.19% and 31.19^abc %
- % Necrosis (MCF-7 [6]; MCF-7): 6.59%
- Bax Conc (Bax; MCF-7 cells): 0.164±0.0056^acd ng/ml
- Bcl-2 Conc (Bcl-2; MCF-7 cells): 3.291±0.36^a ng/ml
- Caspase-9 Conc. (Caspase-9; MCF-7 cells): 30.39±2.56^abc ng/ml
- IC50 at 48 h (in vitro): 35.8 ± 1.74 µg/mL (≈ 79.8 µM)
- viability at 48 h, 0.4 ug (in vitro): 84.7%
- viability at 48 h, 1.6 ug (in vitro): 69.5%
- viability at 48 h, 6.25 ug (in vitro): 63.2%
- viability at 48 h, 25 ug (in vitro): 51.8%
- viability at 48 h, 100 ug (in vitro): 43.6%
- IC50 (MCF-7 [1]; MCF7, read-out: MCF-7 IC50): 5.8 ± 0.16 µM
- IC50 (MCF-7 [1]; [7]): 2.62 ± 0.16 µg/mL
- % viability (MCF-7 [1]; MCF7, 0.4ug): 61.556%
- % viability (MCF-7 [1]; MCF7, 1.6ug): 54.284%
- % viability (MCF-7 [1]; MCF7, 6.3ug): 43.461%
- % viability (MCF-7 [1]; MCF7, 25ug): 36.189%
- % viability (MCF-7 [1]; MCF7, 100ug): 27.3957%
- IC50 (MDA-MB-231 [2]; [8]): 27.5 ± 0.67 µM
- IC50 (MDA-MB-231 [2]; [9]): 12.3 ± 0.67 µg/mL
- IC50 (MCF-10A): 79.9 ± 1.74 µM
- IC50 (EGFR; [10]): 1.1 µM
- IC50 (EGFR; EGFR inhibition IC50): 1.1 ± 0.066 µM
- EGFR %inh (EGFR; conc 10 (unit not given)): 83%
- Percentage above Reference IC50 (potency relative to erlotinib) (EGFR; reference Erlotinib): 7.636%
